ChEMBL document CHEMBL6087460, “Generating a Peptide Library Using the Repeats of Amino Acid Scaffolds Created by Sliding the Framework of a 7-mer Human Chemerin Segment and Discovery of Potent Antibacterial and Antimycobacterial Peptides” (J Med Chem, 2025)
≈ marks a conversion by molar mass, not a printed value. Calls of active or inactive are those of the source. The calls are words filed in the database; no cut-off is given here.

Columns and labels:
Staphylococcus aureus [1] = test: Induction of membrane depolarization in Staphylococcus aureus ATCC 25923 by diSC3-5 dye based analysis; format: functional, organism-based
Escherichia coli [2] = test: Antibacterial activity against Escherichia coli ATCC 25922 infected in BALB/c mouse assessed as bacterial count in liver at 5 mg/kg, iv administered thrice at 1,3 and 5 hrs post-infection measured after 24 hrs post-last dose (Rvb ~ 2.3 x10^7 CFU/mL); format: functional; conditions: time 29 hrs
Staphylococcus aureus [3] = test: Antibacterial activity against Staphylococcus aureus ATCC 25923 incubated for 16 to 18 hrs by broth dilution assay; format: functional; conditions: time 16-18 hrs
Staphylococcus aureus [4] = test: Antibacterial activity against Staphylococcus aureus ATCC 25923 incubated for 16 to 18 hrs in presence of 10 percent human serum by broth dilution assay; format: functional; conditions: time 16-18 hrs
Escherichia coli [5] = test: Antibacterial activity against Escherichia coli ATCC 25922 incubated for 16 to 18 hrs by broth dilution assay; format: functional; conditions: time 16-18 hrs
Escherichia coli [6] = test: Induction of membrane depolarization in Escherichia coli ATCC 25922 by diSC3-5 dye based analysis; format: functional, organism-based
Staphylococcus aureus [7] = test: Bactericidal activity against Staphylococcus aureus ATCC 25923 at MIC incubated for 45 mins by time kill assay; format: functional, organism-based
Escherichia coli [8] = test: Bactericidal activity against Escherichia coli ATCC 25922 at MIC incubated for 45 mins by time kill assay; format: functional, organism-based
Escherichia coli [9] = test: Antibacterial activity against Escherichia coli ATCC 25922 infected in BALB/c mouse assessed as bacterial count in spleen at 5 mg/kg, iv administered thrice at 1,3 and 5 hrs post-infection measured after 24 hrs post-last dose (Rvb ~ 1.9 x10^7 CFU/mL); format: functional; conditions: time 29 hrs
[10] = tested on: Mycolicibacterium smegmatis; test: Antitubercular activity against Mycobacterium smegmatis incubated for 24 hrs by rezasurin dye based assay; format: functional
[11] = Hemolytic activity in human RBC measured after 40 mins by absorbance based assay; format: toxicity, cell-based, Erythrocyte; conditions: human red blood cells
Escherichia coli [12] = test: Disruption of plasma membrane integrity in Escherichia coli ATCC 25922 by SYTOX-Green uptake assay; format: functional, organism-based
Staphylococcus aureus [13] = test: Disruption of membrane integrity in Staphylococcus aureus ATCC 25923 by PI staining based analysis; format: functional, organism-based
Escherichia coli [14] = test: Antibacterial activity against Escherichia coli ATCC 25922 infected in BALB/c mouse assessed as bacterial count in kidney at 5 mg/kg, iv administered thrice at 1,3 and 5 hrs post-infection measured after 24 hrs post-last dose (Rvb ~ 1.8 x10^7 CFU/mL); format: functional; conditions: time 29 hrs
Escherichia coli [15] = test: Antibacterial activity against Escherichia coli ATCC 25922 infected in BALB/c mouse assessed as bacterial count in blood at 5 mg/kg, iv administered thrice at 1,3 and 5 hrs post-infection measured after 24 hrs post-last dose (Rvb ~ 9.6 x10^6 CFU/mL); format: functional; conditions: time 29 hrs
Staphylococcus aureus [16] = test: Antibacterial activity against methicillin-resistant Staphylococcus aureus 33591 incubated for 16 to 18 hrs by broth dilution assay; format: functional; conditions: time 16-18 hrs
Klebsiella pneumoniae = test: Antibacterial activity against Klebsiella pneumoniae ATCC 27736 incubated for 16 to 18 hrs by broth dilution assay; format: functional; conditions: time 16-18 hrs
Escherichia coli [17] = test: Bactericidal activity against Escherichia coli ATCC 25922 incubated for 16 to 18 hrs; format: functional; conditions: time 16-18 hrs
[18] = (§1) Cytotoxicity against rat L6 cells assessed as cell viability at 100 uM incubated for 24 hrs by MTT assay relative to control; format: toxicity, cell-based; conditions: L6 cells, read-out: Activity
Escherichia coli [19] = test: Bactericidal activity against Escherichia coli ATCC 25922 at MIC incubated for 30 mins by time kill assay; format: functional, organism-based
Escherichia coli [20] = test: Antibacterial activity against Escherichia coli ATCC 25922 infected in BALB/c mouse assessed as bacterial load in blood at 5 mg/kg, iv administered thrice at 1,3 and 5 hrs post-infection measured after 24 hrs post-last dose (Rvb ~ 4 x10^6 CFU/mL); format: functional; conditions: time 29 hrs
[21] = Hemolytic activity in human RBC assessed as disruption of membrane integrity by Alexa Fluor-Annexin V staining based analysis; format: toxicity, cell-based; conditions: erythrocyte
[22] = Toxicity in BALB/c mouse assessed as change in AST level at 15 mg/kg, iv administered thrice at 2 hrs interval measured after 7 days; format: organism-based; conditions: in vivo, 168 h, time 7 day
[23] = (§2) Cytotoxicity against mouse 3T3-L1 cells assessed as cell viability at 100 uM incubated for 24 hrs by MTT assay relative to control; format: toxicity, cell-based; conditions: 3T3-L1 cells, read-out: Activity
[24] = Toxicity in BALB/c mouse infected with Escherichia coli ATCC 25922 assessed as animal survival at 5 mg/kg, iv administered thrice at 1,3 and 5 hrs post-infection measured after 7 days; format: organism-based; conditions: in vivo, 168 h, time 7 day
Pseudomonas aeruginosa = test: Antibacterial activity against Pseudomonas aeruginosa ATCC BAA-427 incubated for 16 to 18 hrs by broth dilution assay; format: functional; conditions: time 16-18 hrs
Staphylococcus aureus [25] = test: Antibacterial activity against methicillin-resistant Staphylococcus aureus BAA-44 incubated for 16 to 18 hrs by broth dilution assay; format: functional; conditions: time 16-18 hrs
[26] = Toxicity in BALB/c mouse infected with Escherichia coli ATCC 25922 assessed as animal survival at 2.5 mg/kg, iv administered thrice at 1,3 and 5 hrs post-infection measured after 7 days; format: organism-based; conditions: in vivo, 168 h, time 7 day
Bacillus subtilis = test: Antibacterial activity against Bacillus subtilis 6633 incubated for 16 to 18 hrs by broth dilution assay; format: functional; conditions: time 16-18 hrs
Escherichia coli [27] = test: Disruption of membrane integrity in Escherichia coli ATCC 25922 by PI staining based analysis; format: functional, organism-based
Escherichia coli [28] = test: Antibacterial activity against Escherichia coli ATCC 25922 incubated for 16 to 18 hrs in presence of 10 percent human serum by broth dilution assay; format: functional; conditions: time 16-18 hrs
[29] = Toxicity in BALB/c mouse assessed as change in ALT level at 15 mg/kg, iv administered thrice at 2 hrs interval measured after 7 days; format: organism-based; conditions: in vivo, 168 h, time 7 day
Staphylococcus aureus [30] = test: Disruption of plasma membrane integrity in Staphylococcus aureus ATCC 25923 by SYTOX-Green uptake assay; format: functional, organism-based
[31] = Retention time of compound by RP-HPLC method; format: physicochemical
[32] = Toxicity in BALB/c mouse assessed as animal survival at 15 mg/kg, iv administered thrice at 2 hrs interval measured after 7 days; format: organism-based; conditions: in vivo, 168 h, time 7 day
Staphylococcus aureus [33] = test: Bactericidal activity against Staphylococcus aureus ATCC 25923 incubated for 16 to 18 hrs; format: functional; conditions: time 16-18 hrs
Staphylococcus aureus [34] = test: Induction of resistance development in methicillin-resistant Staphylococcus aureus BAA-44 assessed as fold increase in MIC at sub-MIC measured after 30 passages relative to control; format: functional
Staphylococcus aureus [35] = test: Induction of resistance development in methicillin-resistant Staphylococcus aureus 33591 assessed as fold increase in MIC at sub-MIC measured after 30 passages relative to control; format: functional
Escherichia coli [36] = test: Induction of resistance development in Escherichia coli ATCC 25922 assessed as fold increase in MIC at sub-MIC measured after 30 passages relative to control; format: functional
Staphylococcus aureus [37] = test: Induction of resistance development in Staphylococcus aureus ATCC 25923 assessed as fold increase in MIC at sub-MIC measured after 30 passages relative to control; format: functional
[38] = Stability in 10 percent human serum assessed as compound remaining measured after 60 mins by RP-HPLC analysis; format: ADME, cell-free; conditions: 10% human serum, read-out: Stability
Escherichia coli [39] = test: Bactericidal activity against Escherichia coli ATCC 25922 at MIC incubated for 60 mins by time kill assay; format: functional, organism-based
Staphylococcus aureus [40] = test: Bactericidal activity against Staphylococcus aureus ATCC 25923 at MIC incubated for 60 mins by time kill assay; format: functional, organism-based
L6 = test: as §1; format: toxicity, cell-based; conditions: l6, 24 h, 100 µM
3T3-L1 = test: as §2; format: toxicity, cell-based; conditions: 3t3-l1, 24 h, 100 µM
[41] = Hemolytic activity in human RBC at 100 uM measured after 40 mins by absorbance based assay relative to control; format: toxicity, cell-based, Erythrocyte

Compound | Activity (Staphylococcus aureus [1]) | Activity (Escherichia coli [2]) | MIC (Staphylococcus aureus [3]) [µM] | MIC (Staphylococcus aureus [4]) [µM] | MIC (Escherichia coli [5]) [µM] | Activity (Escherichia coli [6]) | Activity (Escherichia coli [9]) | MIC [10] [µM] | HC50 at 40 min [11] [mM] | Activity (Escherichia coli [12]) | Activity (Staphylococcus aureus [13]) | Activity (Escherichia coli [14]) | Activity (Escherichia coli [15]) | MIC (Staphylococcus aureus [16]) [µM] | MIC (Klebsiella pneumoniae) [µM] | MBC (Escherichia coli [17]) [µM] | MIC (Pseudomonas aeruginosa) [µM] | MIC (Staphylococcus aureus [25]) [µM] | MIC (Bacillus subtilis) [µM] | Retention_time [31] [min] | further results
H-KVLKVLKVLKVL-OH | Active | 9100 CFU/ml | 18.1 | 36.2 | 1.1 | Active | 7800 CFU/ml | > 10 | 2 | Active | Active | 2.9 10^4CFU/ml | 2656 CFU/ml | 9 | 4.5 | 2.2 | 9 | 2.3 | 9 | 19.44 | Activity (Staphylococcus aureus [7]): Active; Activity (Escherichia coli [8]): Active; viability at 24 h, 100 µM [18]: 75%; Activity (Escherichia coli [19]): Active; Emerged As Swiftest Molecule; Activity (Escherichia coli [20]): 3400 CFU/ml; Activity [21]: Non-toxic; Activity [22]: Non-toxic; viability at 24 h, 100 µM [23]: 75%; Survival [24]: 80%; Survival [26]: 40%; Activity (Escherichia coli [27]): Active; MIC (Escherichia coli [28]): 2.2 µM; Activity [29]: Non-toxic; Activity (Staphylococcus aureus [30]): Active; Activity [32]: Non-toxic; MBC (Staphylococcus aureus [33]): 18.1 µM
O=C(O)c1cn(C2CC2)c2cc(N3CCNCC3)c(F)cc2c1=O [CIPROFLOXACIN] |  |  | 6.3 (≈ 2.09 µg/mL) |  | 0.1 (≈ 0.0331 µg/mL) |  |  |  |  |  |  |  |  | 6.3 (≈ 2.09 µg/mL) | 0.1 (≈ 0.0331 µg/mL) |  | 6.3 (≈ 2.09 µg/mL) | 6.3 (≈ 2.09 µg/mL) | 6.3 (≈ 2.09 µg/mL) |  | fold change (FC) (Staphylococcus aureus [34]): 128; fold change (FC) (Staphylococcus aureus [35]): 128; fold change (FC) (Escherichia coli [36]): 128; fold change (FC) (Staphylococcus aureus [37]): 128
H-RLRLRLRLRL-OH | Active | 2.7 10^4CFU/ml | 4.6 | 9.2 | 2.3 | Active | 6.8 10^4CFU/ml | 10 | 1.82 | Active | Active | 2.6 10^4CFU/ml | 2.4 10^4CFU/ml | 18.3 | 18.3 | 4.6 | 18.3 | 18.3 | 4.6 | 15.27 | remaining at 1 h [38]: 70%; Activity (Escherichia coli [39]): Active; Exhibited Rapid Kinetics; Activity (Staphylococcus aureus [40]): Active; Exhibited Rapid Kinetics; Activity (L6): Toxic; Activity (Escherichia coli [20]): 7700 CFU/ml; Activity [21]: Non-toxic; Activity [22]: Non-toxic; Activity (3T3-L1): Toxic; Survival [24]: 80%; Survival [26]: 20%; Activity (Escherichia coli [27]): Active; MIC (Escherichia coli [28]): 4.6 µM; Activity [29]: Non-toxic; Activity (Staphylococcus aureus [30]): Active; Activity ([41]; erythrocyte, 40 min, 100 µM): Non-toxic; Activity [32]: Toxic; MBC (Staphylococcus aureus [33]): 9.2 µM
H-KVLKVLKVLKVLKVL-OH |  |  | 3.6 |  | 1.8 |  |  |  | 0.256 |  |  |  |  | 3.6 | 3.6 |  | 14.5 | 3.6 | 3.6 | 20.77 | remaining at 1 h [38]: 65%; hemolysis at 40 min, 100 µM ([41]; human red blood cells, read-out: Activity): 20%
